Molecules are shown by their SMILES.

The experiment relates to Fasted Mice. The experiment can be described thus: Activity on Glucose Tolerance in Fasted Mice. Format: in vivo. As to conditions: mice fasted 24 hours, 8 per group; dose 0.2 mmol/kg body weight orally in 1% aqueous carboxymethyl cellulose; glucose 1 g/kg sub-cutaneous 30 minutes later; vehicle control (dose 0) value in the row above; asterisks = significance vs controls. The protocol:
For this assay mice were fasted for 24 hours before the experiment and then randomised so that each treatment group contained 8 mice. The compounds were dosed orally in 1% aqueous carboxymethyl cellulose (10 ml/kg body weight), and 30 minutes later glucose (1 g/kg) was administered by the sub-cutaneous route. Blood samples for glucose analysis were taken from the tail 60 minutes after glucose administration; the results are shown in the table below.
A standard system for indicating the significance of results with respect to the controls (dose = zero mmol/kg) which received the 1% aqueous carboxymethyl cellulose vehicle only, is as follows: • ** P < 0.05 • *** P < 0.01 • **** P < 0.001
In the following Table, column A represents the dose of compound (mmol/kg body weight) and column B represents the blood glucose concentration (mmol/litre) 60 minutes after sub-cutaneous glucose load.
On to `CC1CN(C(=Nc2ccccc2)N=c2ccccn2C)CC(C)O1` (stereo not shown) [Example 3, N-(1,2-dihydro-1-methyl-2-pyridylidene)-N'-phenyl-4-(2,6-dimethylmorpholine)-carboxamidine], for which the “blood glucose concentration (mmol/litre) 60 minutes after sub-cutaneous glucose load” value is 3.48 mmol/L.

For the compound `Cn1ccccc1=NC(=Nc1ccccc1)NCc1ccccc1` [Example 4, N-benzyl-N'-(1,2-dihydro-1-methyl-2-pyridylidene)-N"-phenylguanidine], the “blood glucose concentration (mmol/litre) 60 minutes after sub-cutaneous glucose load” value is given as 5.36 ** mmol/litre.

For the compound `CCN(CC)C(=Nc1ccccc1)N=c1c(C)cccn1C.I` [Example 10, N,N-diethyl-N'-(1,2-dihydro-1,3-dimethyl-2-pyridylidene)-N"-phenylguanidine hydroiodide], the “blood glucose concentration (mmol/litre) 60 minutes after sub-cutaneous glucose load” value is given as 5.54 *** mmol/litre.

For the compound `Cc1ccn(C)c(=NC(=Nc2ccccc2)N2CCOCC2)c1.I` [Example 11, N-(1,2-dihydro-1,4-dimethyl-2-pyridylidene)-N'-phenyl-4-morpholinecarboxamidine hydroiodide], the “blood glucose concentration (mmol/litre) 60 minutes after sub-cutaneous glucose load” value is on record as 4.47 ** mmol/litre.

For the compound `Cn1cc(Br)ccc1=NC(=Nc1ccccc1)N1CCOCC1.I` [Example 12, N-(5-bromo-1,2-dihydro-1-methyl-2-pyridylidene)-N'-phenyl-4-morpholinecarboxamidine hydroiodide], the “blood glucose concentration (mmol/litre) 60 minutes after sub-cutaneous glucose load” value is reported as 3.52 *** mmol/litre.

Consider `COC(=O)c1ccc(=NC(=Nc2ccccc2)N2CCOCC2)n(C)c1.I` [Example 13, N-(5-carbomethoxy-1,2-dihydro-1-methyl-2-pyridylidene)-N'-phenyl-4-morpholinecarboxamidine hydroiodide], for which the “blood glucose concentration (mmol/litre) 60 minutes after sub-cutaneous glucose load” value is 3.36 ** mmol/litre.

In the case of `Cc1ccc(=NC(=Nc2ccccc2)N2CCOCC2)n(C)c1` [Example 14, N-(1,2-Dihydro-1,5-dimethyl-2-pyridylidene)-N'-phenyl-4-morpholinecarboxamidine], the “blood glucose concentration (mmol/litre) 60 minutes after sub-cutaneous glucose load” value is 2.53 **** mmol/litre.
